Test results: patent US20230320970A1, “Skin Care Compositions” (Colgate-Palmolive Company, priority 2022, published 2023)

Legend:
[1] = test system: human derived keratinocytes; assay: ROS production in H2O2-treated keratinocytes (alpha-tocopherol, EGT, niacinamide), ROS Detection Assay Kit; assay type: cell-based; details: alpha-tocopherol (0.001%) [sic], EGT 0.01%, niacinamide 0.01%; for Fold Change, decrease in ROS generated in keratinocyte by antioxidant treatment: vs. 0.1% DMSO + 0.3% H2O2; for % Decrease in ROS generated in keratinocyte: relative to 0.3 wt. % H2O2 treatment
Protocol: Hydrogen peroxide treated cells were then treated with: alpha-tocopherol, ergothioneine and niacinamide, respectively and in combination. […] [table] […] [table]

[2] = test system: human derived keratinocytes; assay: ROS production in H2O2-treated keratinocytes (alpha-tocopherol, EGT, sodium PCA), ROS Detection Assay Kit; assay type: cell-based; details: alpha-tocopherol 0.001%, EGT 0.01%, Na PCA 0.01%; for % Decrease in ROS generated in keratinocyte: relative to 0.3 wt. % H2O2 treatment; for Fold Change, decrease in ROS generated in keratinocyte by antioxidant treatment: vs. 0.1 wt. % DMSO + 0.3 wt. % H2O2
Excerpt: Sample preparation: Human derived keratinocytes, plated on 24-well plates.
Cellular ROS/Superoxide Detection Assay Kit (Abcam—ab139476)

[3] = cited from earlier work

| Compound | Fold Change, decrease in ROS generated in keratinocyte by antioxidant treatment [1] | % Decrease in ROS generated in keratinocyte [2] [%] | Fold Change, decrease in ROS generated in keratinocyte by antioxidant treatment [2] | % Decrease in ROS generated in keratinocyte [1] [%] | Log P [3] | % Decrease in ROS generated in keratinocyte ([2]; listed as α-tocopherol) [%] | % Decrease in ROS generated in keratinocyte ([2]; listed as Sodium PCA) [%] |
| --- | --- | --- | --- | --- | --- | --- | --- |
| NC(=O)c1cccnc1 [Niacinamide] | 0.24-fold decrease |  |  |  |  |  |  |
| C[N+](C)(C)[C@@H](Cc1c[nH]c(=S)[nH]1)C(=O)[O-] [EGT, Ergothioneine] | 0.31-fold decrease | 74.5 | 4.43-fold decrease | 15.91 |  |  |  |
| O=C1O[C@H]([C@@H](O)CO)C(O)=C1O[C@H]1O[C@H](CO)[C@@H](O)[C@H](O)[C@H]1O [ascorbyl glucoside] |  |  |  |  | −2.5 |  |  |
| Cc1c(C)c2c(c(C)c1O)CC[C@@](C)(CCC[C@H](C)CCC[C@H](C)CCCC(C)C)O2 [Alpha-tocopherol, alpha-tocopherol] | 0.4-fold decrease | 70.72 | 4.21-fold decrease | 20.79 |  | 70.72 |  |
| O=C1CCC(C(=O)[O-])N1.[Na+] (stereo not drawn) [Na PCA, Sodium PCA] |  | 37.88 | 2.25-fold decrease | 25.75 |  |  | 37.9 |
